In patent US11767353B2, “Trail compositions with reduced immunogenicity” (Theraly Fibrosis, Inc., priority 2020, dated 2023):

Key:
COLO 205 cells = test: Cell viability bioassay (CELL TITER-GLO) on COLO 205 cells; assay type: cell-based, Human; details: colorectal cancer cells COLO-205; read-out: potency in cell viability bioassay
Source text: TLY012 is a PEGylated form of rhTRAIL, genetically fused to a humanized coiled-coil isoleucine “zipper” (miLZ) at the N-terminus. It is a DR4/DR5 receptor agonist and as such is known to induce apoptosis in Human colon adenocarcinoma cells COLO 205 resulting in inhibition of cell proliferation. CELL TITER-GLO™ (Promega, WI) was used to measure luminescence in conventional luciferase assay system. This assay is a homogeneous method to determine the number of metabolically active cells based on quantitation of the ATP present. […]
Assay Procedure. […] The 96-well plates were placed into a 37±1.0° C.; 5±0.5% CO2; ≥85% relative humidity cell culture incubator in a single layer and incubated for 1±0.5 hours until cells are ready. […] As a result, inhibition of cell proliferation is measured by adding the CELL TITER-GLO™ solution to the cells, the lysed cells release ATP. […]
The growth medium was RPMI1640 with 10% FBS, glutamine, penicillin/streptomycin solution. […] Cell suspension was transferred to the white 96-well plates and luminescence was measured by BIOTEK plate reader.
Data were analyzed using BioTek Gen5secure software. The dose response curves were generated using the four-parameter fit logistic model and the IC50 values for reference standard and test samples were calculated. Potency of the test sample is expressed as the ratio of the IC50 values of the test and reference standard samples. […]

[1] = system: orthotopic xenografts of mouse KPC cells (UN-KPC-960); test: Orthotopic pancreatic xenografts of mouse KPC cells in B6.129 mice; assay type: in vivo
Method: To generate the solid tumor, 10^7 of mouse pancreatic ductal adenocarcinoma UN-KPC-960-luc2 cells suspended in 100 μl PBS were inoculated into flank of syngeneic B6.129 mice. The KPC tumors from the donor mice were excised under sterile conditions once the tumor was grown up to […] in diameter. The donor tumors were cut into 1-1.5 mm^3 pieces using surgical blade.
For the orthotopic xenograted tumors in pancreas, a laparotomy via left flank incision was performed to expose the pancreatic head and donor tumor pieces were inserted into the pancreas of recipient B6.129 mice (n=7/group) followed by closing in two layers with 5-0 absorbable sutures. Two weeks after the tumor transplantation, mice were injected with TLY012 via intraperitoneal route (10 mg/kg, every other day) and/or anti-PD-L1 (B7-H1, anti-mouse PD-L1, 2.5 mg/kg, twice of a week) for 2 weeks. Transplanted animals were imaged once a week for 5 weeks. Bioluminescent images using IVIS were acquired 10-15 minutes after intraperitoneal administration of D-Luciferin (150 mg/kg) (GOLDBIO, St. Louis, Mo., USA).
For tumor volume studies, orthotopic xenograted tumors were generated in pancreas. A laparotomy via left flank incision was performed to expose the pancreatic head and 5×10^6 of UN-KPC-960 cells were transplanted into the pancreas of recipient B6.129 mice (n=5/group) followed by closing in two layers with 5-0 absorbable sutures. four weeks after the transplantation, mice were injected with TLY012 via intraperitoneal route (10 mg/kg, every other day) or saline for 2 weeks. Then excised tumors were studied by: a) captured image and tumor volume of ½ab^2, and b) measured collagen and α-SMA positive area after TLY012 treatment using Sirius red and anti-α-SMA staining
Paraffin sectioned KPC tumor samples were used for immunofluorescence staining (IF) stain with α-SMA and either CD4 or CD8. Tissues were deparaffinized, hydrated, and heated in citrate buffer (Thermo Fisher Scientific) by microwave for antigen retrieval. Slides were washed, treated with blocking solution (3% of normal horse serum, Vectastain ABC System, Vector Labs, Burlingame, Calif.), and primary antibodies, rabbit anti-CD4 antibody (Abcam, ab183685) or rabbit anti-CD8 antibody (Abcam, ab217344) were applied with mouse anti-α-SMA antibody. Tissues were incubated overnight at 4° C., washed and anti-rabbit IgG conjugated with Alexa fluor 488 and anti-mouse IgG conjugated with Alexa fluor 633 (Thermo Fisher Scientific) were applied and incubated at room temperature. After washing the slides, samples were mounted with Fluorescence Mounting Medium with DAPI and captured under Axiovert microscope (Carl Zeiss Microscopy, LLC. Thornwood, N.Y.).
The excised tumors were immediately fixed in 10% buffered formalin, embedded in paraffin, and cut at 4 μm thickness. The sections were then stained for Masson's Trichrome or Sirius-Red staining for determining the collagen deposition. Stained tissues were imaged under a light microscope (Nikon Eclipse E600 connected with Nikon DS-Fi2 camera, Nikon USA). Stained pancreatic tissues were randomly selected 10 photos from individual mice, and the positively stained area was quantified using Image J software (NIH, Bethesda, Md.).

TLY012: PEGylated (5 kDa PEG-aldehyde) recombinant human TRAIL (114-281) fused to modified isoleucine zipper (miLZ) at N-terminus; SEQ ID NO:30 trimer
IC50 (COLO 205 cells): 15.5 pM | Percent survival ([1]; Day 0): 100% | Bioluminescence activity (Total Counts), Mean ([1]; Day 14): 72300 Total Counts | Bioluminescence activity (Total Counts), Mean ([1]; Day 21): 233157.143 Total Counts | Bioluminescence activity (Total Counts), Mean ([1]; Day 28): 185128.571 Total Counts | Bioluminescence activity (Total Counts), Mean ([1]; Day 35): 390357.143 Total Counts | Percent survival ([1]; Day 35): 100% | tumor volume, Average ([1]; TLY012 i.p. 10 mg/kg every other day and/or anti-PD-L1 2.5 mg/kg twice a week, 2 weeks): 135.0695 mm3 | levels of collagen (fibrosis), immunohistochemistry ([1]; TLY012 i.p. 10 mg/kg every other day for 2 weeks): decreased the levels of collagen | tumor volume compared to the saline-treated group ([1]; TLY012 i.p. 10 mg/kg every other day for 2 weeks, FIG. 14): reduced the tumor volume | cytotoxic T cell (CD4, CD8) infiltration to the tumor site ([1]; double immunofluorescence staining, vs saline): enhanced cytotoxic T cell infiltration to the tumor site
